Assays:
[1] = Apparent volume of distribution in ICR mouse at 30 mg/kg, po measured upto 48 hrs; type: ADME, organism-based; settings: in vivo
[2] = biological target: C-C chemokine receptor type 6 (Homo sapiens) (UniProt P51684); test: Agonist activity against CCR6 (unknown origin) assessed as induction of beta-arrestin 2 recruitment at 10 microM by beta arrestin assay relative to control; type: functional
Panc02 [3] = test: Antitumour activity against mouse Panc02 cells xenografted in mouse assessed as upregulation of infiltration of CD3+ T cell into tumor tissue treated po twice a day measured after 15 days by immunohistochemical analysis; type: functional, organism-based; settings: dose 10-30 mg/kg, time 15.0 day
[4] = biological target: Chemerin-like receptor 1 (Homo sapiens) (UniProt Q99788); test: Antagonist activity against CMKLR1 (unknown origin) assessed as inhibition of beta-arrestin 2 recruitment at 10 microM by beta arrestin assay relative to control; type: functional; design: scale not given: the % may be the effect or the level left
Sequence of Chemerin-like receptor 1 (Homo sapiens) (Q99788 whole entry): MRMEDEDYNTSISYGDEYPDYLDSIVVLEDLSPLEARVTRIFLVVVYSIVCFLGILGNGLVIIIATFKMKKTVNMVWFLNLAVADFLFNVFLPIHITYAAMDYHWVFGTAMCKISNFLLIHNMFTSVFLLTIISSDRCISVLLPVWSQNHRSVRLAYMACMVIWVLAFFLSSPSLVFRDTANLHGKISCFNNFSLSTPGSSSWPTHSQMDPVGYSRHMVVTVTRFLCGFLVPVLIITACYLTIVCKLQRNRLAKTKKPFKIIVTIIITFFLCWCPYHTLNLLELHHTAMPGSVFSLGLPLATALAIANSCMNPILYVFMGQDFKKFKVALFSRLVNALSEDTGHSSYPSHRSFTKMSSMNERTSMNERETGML

[5] = biological target: Chemerin-like receptor 1 (Homo sapiens) (UniProt Q99788); test: Agonist activity against CMKLR1 (unknown origin) assessed as induction of beta-arrestin 2 recruitment at 10 microM by beta arrestin assay relative to control; type: functional
[6] = Cytotoxicity against human PBMC cells assessed as reduction in cell viability measured after 72 hrs by CCK8 assay; type: cell-based
Panc02 [7] = test: Antitumour activity against mouse Panc02 cells xenografted in mouse assessed as change in CD45 expressing immune cells infiltration into tumor tissue at 30 mg/kg, po bid measured after 15 days by flow cytometry analysis (reference value: 2.3%); type: functional; settings: time 15 day
Panc02 [8] = test: Antitumour activity against mouse Panc02 cells xenografted in mouse assessed as tumour growth inhibition at 10 mg/kg, po bid […]; type: functional; settings: read-out: TGI
[9] = biological target: C-C chemokine receptor type 2 (Homo sapiens) (UniProt P41597); test: Agonist activity against CCR2 (unknown origin) assessed as induction of beta-arrestin 2 recruitment at 10 microM by beta arrestin assay relative to control; type: functional
Sequence of C-C chemokine receptor type 2 (Homo sapiens) (P41597 whole entry, looked up): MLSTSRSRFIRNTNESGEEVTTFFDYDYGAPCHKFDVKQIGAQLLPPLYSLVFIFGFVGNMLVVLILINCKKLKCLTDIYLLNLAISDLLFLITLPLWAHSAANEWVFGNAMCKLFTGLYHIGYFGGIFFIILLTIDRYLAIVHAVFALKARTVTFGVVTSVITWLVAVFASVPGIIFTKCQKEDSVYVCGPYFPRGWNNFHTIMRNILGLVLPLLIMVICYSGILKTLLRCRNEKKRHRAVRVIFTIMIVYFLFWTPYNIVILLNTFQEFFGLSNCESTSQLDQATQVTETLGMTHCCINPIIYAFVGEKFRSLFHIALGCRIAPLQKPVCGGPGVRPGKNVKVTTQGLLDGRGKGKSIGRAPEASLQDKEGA

[10] = biological target: C-C chemokine receptor type 10 (Homo sapiens) (UniProt P46092); test: Antagonist activity against CCR10 (unknown origin) assessed as inhibition of beta-arrestin 2 recruitment at 10 microM by beta arrestin assay relative to control; type: functional; design: scale not given: the % may be the effect or the level left
Sequence of C-C chemokine receptor type 10 (Homo sapiens) (P46092 whole entry): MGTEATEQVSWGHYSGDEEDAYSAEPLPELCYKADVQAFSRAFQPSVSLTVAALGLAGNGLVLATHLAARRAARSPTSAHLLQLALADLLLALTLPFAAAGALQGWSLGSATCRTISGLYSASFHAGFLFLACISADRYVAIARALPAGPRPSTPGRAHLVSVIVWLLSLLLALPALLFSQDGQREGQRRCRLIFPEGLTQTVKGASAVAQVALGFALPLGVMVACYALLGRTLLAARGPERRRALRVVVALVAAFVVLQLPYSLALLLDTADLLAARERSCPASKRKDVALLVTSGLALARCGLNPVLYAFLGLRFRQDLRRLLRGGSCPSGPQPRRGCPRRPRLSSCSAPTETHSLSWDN

[11] = biological target: C-C chemokine receptor type 4 (Homo sapiens) (UniProt P51679); test: Antagonist activity against CCR4 (unknown origin) assessed as inhibition of beta-arrestin 2 recruitment at 10 microM by beta arrestin assay relative to control; type: functional; design: scale not given: the % may be the effect or the level left
Sequence of C-C chemokine receptor type 4 (Homo sapiens) (P51679 whole entry): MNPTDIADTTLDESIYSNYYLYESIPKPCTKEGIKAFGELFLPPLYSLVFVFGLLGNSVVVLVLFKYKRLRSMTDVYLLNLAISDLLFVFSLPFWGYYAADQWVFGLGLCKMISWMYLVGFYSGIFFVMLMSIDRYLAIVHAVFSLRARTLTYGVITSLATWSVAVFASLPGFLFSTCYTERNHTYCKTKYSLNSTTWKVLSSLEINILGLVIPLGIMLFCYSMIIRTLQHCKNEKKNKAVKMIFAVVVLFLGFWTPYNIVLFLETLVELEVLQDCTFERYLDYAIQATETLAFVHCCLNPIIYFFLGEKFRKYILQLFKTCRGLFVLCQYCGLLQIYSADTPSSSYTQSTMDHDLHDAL

[12] = AUC (0 to t) in ICR mouse at 30 mg/kg, po measured upto 48 hrs; type: ADME, organism-based; design: route oral, dose 30 mg/kg, time <=48; settings: in vivo
Panc02 [13] = test: Antitumour activity against mouse Panc02 cells xenografted in mouse assessed as change in CD11b expressing immune cells infiltration into tumor tissue using LY6G antibody at 30 mg/kg, po bid measured after 15 days by flow cytometry analysis (reference value: 29.7%); type: functional; settings: time 15 day
[14] = biological target: C-C chemokine receptor type 1 (Homo sapiens) (UniProt P32246); test: Antagonist activity against CCR1 (unknown origin) assessed as inhibition of beta-arrestin 2 recruitment at 10 microM by beta arrestin assay relative to control; type: functional; design: scale not given: the % may be the effect or the level left; settings: filed as antagonist
Sequence of C-C chemokine receptor type 1 (Homo sapiens) (P32246 whole entry): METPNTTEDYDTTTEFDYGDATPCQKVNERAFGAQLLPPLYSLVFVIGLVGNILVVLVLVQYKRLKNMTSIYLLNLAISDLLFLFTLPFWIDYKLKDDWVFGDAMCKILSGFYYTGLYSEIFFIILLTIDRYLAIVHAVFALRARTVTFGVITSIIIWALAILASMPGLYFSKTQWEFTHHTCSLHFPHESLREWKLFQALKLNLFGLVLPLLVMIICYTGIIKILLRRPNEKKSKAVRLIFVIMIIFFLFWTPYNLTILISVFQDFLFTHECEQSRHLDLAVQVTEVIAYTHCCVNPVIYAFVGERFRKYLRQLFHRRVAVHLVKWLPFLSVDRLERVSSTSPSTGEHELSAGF

[15] = biological target: C-C chemokine receptor type 3 (Homo sapiens) (UniProt P51677); test: Agonist activity against CCR3 (unknown origin) assessed as induction of beta-arrestin 2 recruitment at 10 microM by beta arrestin assay relative to control; type: functional
Sequence of C-C chemokine receptor type 3 (Homo sapiens) (P51677 whole entry): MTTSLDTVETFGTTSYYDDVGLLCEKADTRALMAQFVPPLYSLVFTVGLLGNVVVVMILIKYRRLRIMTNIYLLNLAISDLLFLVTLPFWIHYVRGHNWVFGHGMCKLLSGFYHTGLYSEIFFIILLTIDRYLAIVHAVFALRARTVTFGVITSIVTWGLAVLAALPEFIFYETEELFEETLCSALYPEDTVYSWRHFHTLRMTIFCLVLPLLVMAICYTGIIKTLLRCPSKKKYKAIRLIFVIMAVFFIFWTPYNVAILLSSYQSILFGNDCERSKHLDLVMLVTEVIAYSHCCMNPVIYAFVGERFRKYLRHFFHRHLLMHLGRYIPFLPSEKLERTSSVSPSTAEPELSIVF

SW1990 = test: Cytotoxicity against human SW1990 cells assessed as reduction in cell viability measured after 72 hrs by CCK8 assay; type: cell-based; settings: SW1990, 72 h
[16] = biological target: C-C chemokine receptor type 4 (Homo sapiens) (UniProt P51679); test: Agonist activity against CCR4 (unknown origin) assessed as induction of beta-arrestin 2 recruitment at 10 microM by beta arrestin assay relative to control; type: functional
[17] = biological target: C-X-C chemokine receptor type 2 (Homo sapiens) (UniProt P25025); test: Agonist activity against CXCR2 (unknown origin) assessed as induction of beta-arrestin 2 recruitment at 10 microM by beta arrestin assay relative to control; type: functional
Panc02 [18] = test: Antitumour activity against mouse Panc02 cells xenografted in mouse assessed as change in CD11b expressing immune cells infiltration into tumor tissue using LY6C antibody at 30 mg/kg, po bid measured after 15 days by flow cytometry analysis (reference value: 20.5%); type: functional; settings: time 15 day
[19] = biological target: C-C chemokine receptor type 7 (Homo sapiens) (UniProt P32248); test: Agonist activity against CCR7 (unknown origin) assessed as induction of beta-arrestin 2 recruitment at 10 microM by beta arrestin assay relative to control; type: functional
Sequence of C-C chemokine receptor type 7 (Homo sapiens) (P32248 whole entry): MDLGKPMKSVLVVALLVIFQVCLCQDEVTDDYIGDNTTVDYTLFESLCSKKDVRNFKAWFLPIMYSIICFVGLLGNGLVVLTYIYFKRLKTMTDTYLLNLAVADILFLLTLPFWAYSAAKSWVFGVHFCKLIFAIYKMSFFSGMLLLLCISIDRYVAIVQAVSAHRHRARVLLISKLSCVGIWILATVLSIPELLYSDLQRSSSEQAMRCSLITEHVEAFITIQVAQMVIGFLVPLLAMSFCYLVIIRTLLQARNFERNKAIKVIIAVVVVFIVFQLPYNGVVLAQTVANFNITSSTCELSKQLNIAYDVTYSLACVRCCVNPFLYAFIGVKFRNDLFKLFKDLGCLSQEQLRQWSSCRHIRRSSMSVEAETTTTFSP

[20] = biological target: C-X-C chemokine receptor type 3 (Homo sapiens) (UniProt P49682); test: Agonist activity against CXCR3 (unknown origin) assessed as induction of beta-arrestin 2 recruitment at 10 microM by beta arrestin assay relative to control; type: functional
Sequence of C-X-C chemokine receptor type 3 (Homo sapiens) (P49682 whole entry): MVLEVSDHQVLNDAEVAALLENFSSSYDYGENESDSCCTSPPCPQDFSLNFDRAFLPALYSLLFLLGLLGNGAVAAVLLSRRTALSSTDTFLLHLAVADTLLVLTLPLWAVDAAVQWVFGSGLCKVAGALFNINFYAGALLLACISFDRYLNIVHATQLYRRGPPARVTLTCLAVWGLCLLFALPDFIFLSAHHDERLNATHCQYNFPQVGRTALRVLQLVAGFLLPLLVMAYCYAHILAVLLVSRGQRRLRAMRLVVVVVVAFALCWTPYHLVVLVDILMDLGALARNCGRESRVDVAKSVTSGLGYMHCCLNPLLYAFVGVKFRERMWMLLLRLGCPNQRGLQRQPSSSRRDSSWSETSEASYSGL

[21] = biological target: C-C chemokine receptor type 3 (Homo sapiens) (UniProt P51677); test: Antagonist activity against CCR3 (unknown origin) assessed as inhibition of beta-arrestin 2 recruitment at 10 microM by beta arrestin assay relative to control; type: functional; design: scale not given: the % may be the effect or the level left
[22] = biological target: T1, C-X-C chemokine receptor type 2 (Homo sapiens, UniProt P25025); test: Antagonist activity at human CXCR2 expressed in HEK293 cells assessed as inhibition of CXCL8-induced beta-arrestin recruitment preincubated for 30 mins followed by addition of agonist incubated for 90 mins by beta arrestin assay; type: functional, cell-based
T1 sequence (P25025 whole entry): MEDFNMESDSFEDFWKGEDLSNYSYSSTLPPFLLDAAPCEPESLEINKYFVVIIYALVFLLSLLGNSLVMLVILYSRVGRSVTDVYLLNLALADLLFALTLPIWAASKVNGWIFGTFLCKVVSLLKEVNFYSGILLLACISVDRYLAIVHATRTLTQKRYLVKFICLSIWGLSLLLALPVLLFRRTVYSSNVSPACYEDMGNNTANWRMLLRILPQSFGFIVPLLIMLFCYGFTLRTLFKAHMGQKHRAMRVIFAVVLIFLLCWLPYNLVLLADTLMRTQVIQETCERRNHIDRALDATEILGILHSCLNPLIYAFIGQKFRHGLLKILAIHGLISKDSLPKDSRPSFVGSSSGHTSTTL

[23] = biological target: C-C chemokine receptor type 8 (Homo sapiens) (UniProt P51685); test: Antagonist activity against CCR8 (unknown origin) assessed as inhibition of beta-arrestin 2 recruitment at 10 microM by beta arrestin assay relative to control; type: functional; design: scale not given: the % may be the effect or the level left
Sequence of C-C chemokine receptor type 8 (Homo sapiens) (P51685 whole entry): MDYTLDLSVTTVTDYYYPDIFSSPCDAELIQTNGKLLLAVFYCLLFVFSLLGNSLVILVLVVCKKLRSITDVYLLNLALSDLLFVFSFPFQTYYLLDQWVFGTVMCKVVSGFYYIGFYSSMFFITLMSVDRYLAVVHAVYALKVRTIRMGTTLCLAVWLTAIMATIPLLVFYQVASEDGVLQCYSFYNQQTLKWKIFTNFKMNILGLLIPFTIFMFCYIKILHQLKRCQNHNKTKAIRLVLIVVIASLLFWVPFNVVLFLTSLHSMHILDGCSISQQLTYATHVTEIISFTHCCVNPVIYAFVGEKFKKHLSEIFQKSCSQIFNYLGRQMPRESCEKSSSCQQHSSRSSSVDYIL

[24] = AUC (0 to infinity) in ICR mouse at 3 mg/kg, iv measured upto 48 hrs; type: ADME, organism-based; design: route intravenous, dose 3 mg/kg, time <=48; settings: in vivo
Panc02 [25] = test: Antitumour activity against mouse Panc02 cells xenografted in mouse assessed as change in Gr1 expressing immune cells infiltration into tumor tissue at 30 mg/kg, po bid measured after 15 days by flow cytometry analysis (reference value: 27.4%); type: functional; settings: time 15 day
[26] = Tmax in ICR mouse at 30 mg/kg, po measured upto 48 hrs; type: ADME, organism-based; settings: in vivo
[27] = biological target: C-X-C chemokine receptor type 4 (Homo sapiens) (UniProt P61073); test: Agonist activity against CXCR4 (unknown origin) assessed as induction of beta-arrestin 2 recruitment at 10 microM by beta arrestin assay relative to control; type: functional
Sequence of C-X-C chemokine receptor type 4 (Homo sapiens) (P61073 whole entry): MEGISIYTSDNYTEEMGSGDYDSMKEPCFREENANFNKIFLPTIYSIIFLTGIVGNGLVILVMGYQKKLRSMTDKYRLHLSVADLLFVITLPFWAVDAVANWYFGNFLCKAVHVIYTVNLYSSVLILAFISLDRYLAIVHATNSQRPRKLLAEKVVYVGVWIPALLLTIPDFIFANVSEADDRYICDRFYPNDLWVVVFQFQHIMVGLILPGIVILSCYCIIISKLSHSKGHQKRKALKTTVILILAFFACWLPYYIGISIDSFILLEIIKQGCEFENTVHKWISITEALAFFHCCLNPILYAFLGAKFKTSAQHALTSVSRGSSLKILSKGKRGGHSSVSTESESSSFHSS

[28] = biological target: C-C chemokine receptor type 1 (Homo sapiens) (UniProt P32246); test: Agonist activity against CCR1 (unknown origin) assessed as induction of beta-arrestin 2 recruitment at 10 microM by beta arrestin assay relative to control; type: functional
Panc02 [29] = test: Antitumour activity against mouse Panc02 cells xenografted in mouse assessed as tumour growth inhibition at 30 mg/kg, po bid […]; type: functional; settings: read-out: TGI
[30] = Oral bioavailability in ICR mouse at 30 mg/kg measured upto 48 hrs; type: ADME, organism-based; settings: in vivo

Sequence of C-C chemokine receptor type 6 (Homo sapiens) (P51684 whole entry): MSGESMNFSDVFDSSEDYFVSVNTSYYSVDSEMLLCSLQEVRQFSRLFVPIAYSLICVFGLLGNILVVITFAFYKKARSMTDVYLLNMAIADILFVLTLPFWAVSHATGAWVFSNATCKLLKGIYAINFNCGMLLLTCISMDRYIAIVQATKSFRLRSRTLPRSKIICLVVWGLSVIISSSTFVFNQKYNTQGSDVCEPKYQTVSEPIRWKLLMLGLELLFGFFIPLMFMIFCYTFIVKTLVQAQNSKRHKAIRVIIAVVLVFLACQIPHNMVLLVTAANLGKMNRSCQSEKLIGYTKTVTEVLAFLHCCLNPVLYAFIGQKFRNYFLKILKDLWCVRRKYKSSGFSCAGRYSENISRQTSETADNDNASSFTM

## Cc1c(F)cccc1NC(=O)Nc1ccc2c(c1O)S(=O)(=O)CCC2
[1]
  Vz: 939.87 L/kg
[2]
  Activity: < 10%
Panc02 [3]
  Activity: Dose-Dependent Effect
[4]
  Activity: < 10%
[5]
  Activity: < 10%
[6]
  IC50: > 10 µM
Panc02 [7]
  Activity: 42.3%
Panc02 [8]
  inhibition in vivo at 10 mg/kg: 42.5%
[9]
  Activity: < 10%
[10]
  Activity: < 10%
[11]
  Activity: 10%
[12]
  AUC(0-t) at 48 h: 218 ng·h/mL
Panc02 [13]
  Activity: 7.6%
[14]
  Activity: 49%
[15]
  Activity: < 10%
SW1990
  IC50: > 10 µM
[16]
  Activity: < 10%
[17]
  Activity: < 10%
Panc02 [18]
  Activity: 15.3%
[19]
  Activity: < 10%
[20]
  Activity: < 10%
[21]
  Activity: 13%
[22]
  IC50: 0.095 µM
[23]
  Activity: < 10%
[24]
  AUC(0-inf): 365 ng·h/mL
Panc02 [25]
  Activity: 7.5%
[26]
  Tmax: 1.41 h
[27]
  Activity: < 10%
[28]
  Activity: < 10%
Panc02 [29]
  inhibition in vivo at 30 mg/kg: 61.4%
[30]
  bioavailability: 6.1%

— ChEMBL document CHEMBL5032530, “Discovery of Benzocyclic Sulfone Derivatives as Potent CXCR2 Antagonists for Cancer Immunotherapy” (J Med Chem, 2021)
